Experimental data: patent US4108994A, “5-Thiazole-methane-amines, and their use as antilipolytics” (Roussel Uclaf, priority 1975, dated 1978)
Counter-ions that a name gives are not always drawn.

Experiments:
[1] = acute toxicity, intraperitoneal, mice (DL50); conditions: mouse, in vivo, ip, suspension in carboxymethylcellulose, observed one week, read-out: DL50 (average lethal dose)
Experimental: The acute toxicity was determined on groups of 10 mice weighing between 18 and 22 g and the product was administered intraperitoneally as a suspension in carboxymethylcellulose.

[2] = test system: plasmatic free fatty acids; assay: Antilipolytic activity: determination of plasmatic free fatty acids in the blood; assay type: in vivo, Male rats of the Sprague Dawley SPF strain; conditions: oral; for ED50: Rattus norvegicus, 1 h, starved rats, one hour after administration, read-out: DA50 (dose which reduced by 50% the level of free fatty acids as compared to controls); for reduction of the amount of plasmatic free fatty acids in the blood (in words): rats
Experimental: B. Antilipolytic Activity: Determination of Plasmatic Free Fatty Acids in the Blood
Male rats of the Sprague Dawley SPF strain weighing about 180 to 200 gm were starved for 24 hours and then were given the product orally. One hour after the oral administration, the animals were killed by carotidienne section and samples of the blood were obtained to determine the amount of free fatty acids. The extraction of the free fatty acids was made by the technique of Dole [J. Clin. Invest., Vol. 38 (1959), p. 1544-1554] as modified by Trout et al. [J. Lipid. Res., Vol. 1 (1960) p. 199-202]. The plasmatic extract freed of phospholipids was colorimetrically examined by the method of Anthonis [J. Lipid. Res., Vol. 6 (1965), p. 307-312]. Under these test conditions, the dose of the products which reduced by 50% the level of free fatty acids in the treated animals as compared to the controls (DA50) was determined.

[3] = test system: glycemia; assay: Hypoglycemiant activity: determination of glycemia; assay type: in vivo, Male rats of the Sprague Dawley SPF strain; conditions: oral, starved rats, one hour
Experimental: C. Hypoglycemiant Activity: Determination of Glycemia
Male rats of the Sprague Dawley SPF strain weighing between 180 and 200 gm were starved for 24 hours and were then given the test product orally. One hour after the administration, the animals were killed by carotidienne section and blood samples were taken to determine the glycemia. The seric extract was treated by the enzymatic (glucose-oxydase) method of Boehringer and the percent of reduction of glycemia as compared to the controls was determined for each dose of the product administered.

In the case of `Cc1ncc(CN(C)C)s1` [Example 3, maleate of N,N,2-trimethyl-5-thiazole-methane-amine], the LD50 at 168 h [1] is reported as about 450 mg/kg, the ED50 [2] is reported as about 5 mg/kg and the “reduction of the amount of plasmatic free fatty acids in the blood (in words)” value [2] is reported as “clear reduction”.
For `CNCc1cnc(C)s1` [Example 2, acetate of N,2-dimethyl-5-thiazole-methane-amine], the LD50 at 168 h [1] was about 700 mg/kg, the ED50 [2] was about 4 mg/kg and the “reduction of the amount of plasmatic free fatty acids in the blood (in words)” value [2] was “clear reduction”.
`Cc1ncc(CN(CCO)CCO)s1` [Example 4, dinitrate of N,N-bis-(β-hydroxyethyl)-2-methyl-5-thiazole-methane-amine] showed an LD50 at 168 h [1] of about 900 mg/kg.
`Cc1ncc(CN2CCN(C)CC2)s1` [Example 7, 2-methyl-5-(4-methyl-piperazin-1-yl-methyl)-thiazole] showed an LD50 at 168 h [1] of about 500 mg/kg.
In the case of `Cc1ncc(CN)s1` [Example 1, hemisuccinate of 2-methyl-5-thiazole-methane-amine], the LD50 at 168 h [1] is reported as over 1000 mg/kg, the ED50 [2] is reported as about 0.8 mg/kg and the “reduction of the amount of plasmatic free fatty acids in the blood (in words)” value [2] is reported as “clear reduction”.
In the case of `CCCc1ncc(CN)s1` [Example 5, hemisuccinate of 2-n-propyl-5-thiazole-methane-amine], the LD50 at 168 h [1] is reported as about 650 mg/kg, the ED50 [2] is reported as about 8 mg/kg and the “reduction of the amount of plasmatic free fatty acids in the blood (in words)” value [2] is reported as “clear reduction”. The “Percentage of reduction of the glycemia” value ([3]; 5 mg/kg) was -12%, the “Percentage of reduction of the glycemia” value ([3]; 10 mg/kg) was -14% and the “Percentage of reduction of the glycemia” value ([3]; 20 mg/kg) was -27%.
